Results taken from patent US7994336B2, “Azetidine compounds as orexin receptor antagonists” (Actelion Pharmaceuticals Ltd., priority 2006, dated 2011).

What was measured:
human orexin-1 receptor = target: T1, human orexin-1 receptor (Homo sapiens, UniProt O43613); test: Intracellular calcium measurements (FLIPR), orexin receptor antagonistic activity; assay type: cell-based; conditions: CHO cells expressing human orexin-1 receptor; 10 nM orexin-A as agonist; fluo-3 AM calcium signal; read-out: OX1 IC50
T1 construct: expressed in transfected cells; host or cells: CHO cells (grown under G418 selection)
T1 sequence (O43613 1-425): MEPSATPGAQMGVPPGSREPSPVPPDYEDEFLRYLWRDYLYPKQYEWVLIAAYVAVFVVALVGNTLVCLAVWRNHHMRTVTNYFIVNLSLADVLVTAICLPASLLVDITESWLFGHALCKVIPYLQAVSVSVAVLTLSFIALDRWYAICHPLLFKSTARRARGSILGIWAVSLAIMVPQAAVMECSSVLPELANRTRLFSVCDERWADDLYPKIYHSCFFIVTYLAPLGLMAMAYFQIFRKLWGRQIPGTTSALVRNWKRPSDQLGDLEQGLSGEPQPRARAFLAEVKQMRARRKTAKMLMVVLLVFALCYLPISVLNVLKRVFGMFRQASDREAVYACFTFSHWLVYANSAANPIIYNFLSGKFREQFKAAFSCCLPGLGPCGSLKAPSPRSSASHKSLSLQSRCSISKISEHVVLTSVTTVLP
Protocol: (§1) The orexin receptor antagonistic activity of the compounds of formula (I) is determined in accordance with the following experimental method.
(§2) Chinese hamster ovary (CHO) cells expressing the human orexin-1 receptor and the human orexin-2 receptor, respectively, are grown in culture medium (Ham F-12 with L-Glutamine) containing 300 μg/ml G418, 100 U/ml penicillin, 100 μg/ml streptomycin and 10% inactivated fetal calf serum (FCS). The cells are seeded at 80′000 cells/well into 96-well black clear bottom sterile plates (Costar) which have been precoated with 1% gelatine in Hanks' Balanced Salt Solution (HBSS). All reagents are from Gibco BRL. The seeded plates are incubated overnight at 37° C. in 5% CO2.
(§3) Human orexin-A as an agonist is prepared as 1 mM stock solution in methanol:water (1:1), diluted in HBSS containing 0.1% bovine serum albumin (BSA) and 2 mM HEPES for use in the assay at a final concentration of 10 nM.
(§4) Antagonists are prepared as 10 mM stock solution in DMSO, then diluted in 96-well plates, first in DMSO, then in HBSS containing 0.1% bovine serum albumin (BSA) and 2 mM HEPES.
(§5) On the day of the assay, 100 μl of loading medium (HBSS containing 1% FCS, 2 mM HEPES, 5 mM probenecid (Sigma) and 3 μM of the fluorescent calcium indicator fluo-3 AM (1 mM stock solution in DMSO with 10% pluronic acid) (Molecular Probes) is added to each well.
(§6) The 96-well plates are incubated for 60 min at 37° C. in 5% CO2. The loading solution is then aspirated and cells are washed 3 times with 200 μl HBSS containing 2.5 mM probenecid, 0.1% BSA, 2 mM HEPES. 100 μl of that same buffer is left in each well. Within the Fluorescent Imaging Plate Reader (FLIPR, Molecular Devices), antagonists are added to the plate in a volume of 50 μl, incubated for 20 min and finally 100 μl of agonist is added. Fluorescence is measured for each well at 1 second intervals, and the height of each fluorescence peak is compared to the height of the fluorescence peak induced by 10 nM orexin-A with buffer in place of antagonist. For each antagonist, IC50 value (the concentration of compound needed to inhibit 50% of the agonistic response) is determined.

human orexin-2 receptor = target: T2, human orexin-2 receptor (Homo sapiens, UniProt O43614); test: as above; assay type: cell-based; conditions: CHO cells expressing human orexin-2 receptor; 10 nM orexin-A as agonist; fluo-3 AM calcium signal; read-out: OX2 IC50
T2 construct: expressed in transfected cells; host or cells: CHO cells (grown under G418 selection)
T2 sequence (O43614 1-444): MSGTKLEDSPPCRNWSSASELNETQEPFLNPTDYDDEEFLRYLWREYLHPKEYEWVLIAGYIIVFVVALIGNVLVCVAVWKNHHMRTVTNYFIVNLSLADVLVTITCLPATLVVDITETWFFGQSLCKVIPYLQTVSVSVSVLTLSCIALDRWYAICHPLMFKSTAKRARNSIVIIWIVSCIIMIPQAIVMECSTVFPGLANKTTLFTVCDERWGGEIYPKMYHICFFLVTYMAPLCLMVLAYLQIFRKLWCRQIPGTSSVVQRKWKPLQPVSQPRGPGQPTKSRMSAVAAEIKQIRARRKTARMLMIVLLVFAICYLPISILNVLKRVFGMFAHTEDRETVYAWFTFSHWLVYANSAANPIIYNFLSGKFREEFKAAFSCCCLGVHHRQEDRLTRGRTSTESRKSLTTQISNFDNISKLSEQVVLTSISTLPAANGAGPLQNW
Protocol: as §1, §2, §3, §4, §5, §6

Row | Structure (SMILES) | IC50 (human orexin-1 receptor) [nM] | IC50 (human orexin-2 receptor) [nM]
1 | Cc1cccc(-c2sc(C)nc2C(=O)N2CC[C@H]2CNC(=O)c2c(Cl)nc3sccn23)c1 [Example 21, (2S)-6-Chloro-imidazo[2,1-b]thiazole-5-carboxylic acid [1-(2-methyl-5-m-tolyl-thiazole-4-carbonyl)-azetidin-2-ylmethyl]-amide] | 41 | 7
2 | COc1ccc(-c2sc(C)nc2C(=O)N2CCC2CNC(=O)c2c(C)nc3sccn23)cc1 (stereo not drawn) [Example 28, (2RS)-6-Methyl-imidazo[2,1-b]thiazole-5-carboxylic acid{1-[5-(4-methoxy-phenyl)-2-methyl-thiazole-4-carbonyl]-azetidin-2-ylmethyl}-amide] | 89 | 11
3 | Cc1cccc(-c2sc(N)nc2C(=O)N2CC[C@H]2CNC(=O)c2c(Cl)nc3sccn23)c1 [Example 22, (2S)-6-Chloro-imidazo[2,1-b]thiazole-5-carboxylic acid [1-(2-amino-5-m-tolyl-thiazole-4-carbonyl)-azetidin-2-ylmethyl]-amide] | 10 | 5
4 | Cc1cccc(-c2sc(C)nc2C(=O)N2CCC2CNC(=O)c2nc3scc(C)n3c2C)c1 (racemic) [Example 40, (2RS)-3,5-Dimethyl-imidazo[2,1-b]thiazole-6-carboxylic acid [1-(2-methyl-5-m-tolyl-thiazole-4-carbonyl)-azetidin-2-ylmethyl]-amide] | 11 | 39
5 | Cc1ccc(-c2ccccc2C(=O)N2CC[C@H]2CNC(=O)c2cccc3occc23)cc1C [Example 15, (2S)-Benzofuran-4-carboxylic acid [1-(3′,4′-dimethyl-biphenyl-2-carbonyl)-azetidin-2-ylmethyl]-amide] | 70 | 11
6 | Cc1cccc(-c2sc(C)nc2C(=O)N2CCC2CNC(=O)c2cccc3c2OCCC3)c1 (racemic) [Example 57, (2RS)-Chroman-8-carboxylic acid [1-(2-methyl-5-m-tolyl-thiazole-4-carbonyl)-azetidin-2-ylmethyl]-amide] | 1200 | 19
7 | Cc1nc(C(=O)N2CCC2CNC(=O)c2c(C)nc3sccn23)c(-c2ccc(F)c(F)c2)s1 (stereo not drawn) [Example 67, (2RS)-6-Methyl-imidazo[2,1-b]thiazole-5-carboxylic acid{1-[5-(3,4-difluoro-phenyl)-2-methyl-thiazole-4-carbonyl]-azetidin-2-ylmethyl}-amide] | 2010 | 102
8 | Cc1cccc(-c2sc(C)nc2C(=O)N2CCC2CNC(=O)c2c(C(F)(F)F)nc3sccn23)c1 (racemic) [Example 50, (2RS)-6-Trifluoromethyl-imidazo[2,1-b]thiazole-5-carboxylic acid [1-(2-methyl-5-m-tolyl-thiazole-4-carbonyl)-azetidin-2-ylmethyl]-amide] | 391 | 57
9 | Cc1nc(C(=O)N2CCC2CNC(=O)c2c(C)nc3sccn23)c(-c2cccc(F)c2)s1 (stereo not drawn) [Example 11, (2RS)-6-Methyl-imidazo[2,1-b]thiazole-5-carboxylic acid{1-[5-(3-fluoro-phenyl)-2-methyl-thiazole-4-carbonyl]-azetidin-2-ylmethyl}-amide] | 196 | 66
10 | COc1ccccc1C(=O)N1CC[C@H]1CNC(=O)c1cccc2occc12 [Example 9, (2S)-benzofuran-4-carboxylic acid [1-(2-methoxy-benzoyl)-azetidin-2-ylmethyl]-amide] | 88 | 122
11 | Cc1cccc(-c2sc(C)nc2C(=O)N2CCC2CNC(=O)c2nc3sccn3c2C)c1 (racemic) [Example 42, (2RS)-5-Methyl-imidazo[2,1-b]thiazole-6-carboxylic acid [1-(2-methyl-5-m-tolyl-thiazole-4-carbonyl)-azetidin-2-ylmethyl]-amide] | 85 | 41
12 | Cc1nc(C(=O)N2CCC2CNC(=O)c2c(C)nc3sccn23)c(-c2ccc(Cl)c(Cl)c2)s1 (racemic) [Example 32, (2RS)-6-Methyl-imidazo[2,1-b]thiazole-5-carboxylic acid{1-[5-(3,4-dichloro-phenyl)-2-methyl-thiazole-4-carbonyl]-azetidin-2-ylmethyl}-amide] | 75 | 25
13 | Cc1cccc(-c2sc(C)nc2C(=O)N2CCC2CNC(=O)c2cccc3c2OCCN3C)c1 (racemic) [Example 54, (2RS)-4-Methyl-3,4-dihydro-2H-benzo[1,4]oxazine-8-carboxylic acid [1-(2-methyl-5-m-tolyl-thiazole-4-carbonyl)-azetidin-2-ylmethyl]-amide] | 3100 | 13
14 | Cc1cccc(-c2sc(C)nc2C(=O)N2CCC2CNC(=O)c2cnc3scc(C)n23)c1 (racemic) [Example 61, (2RS)-3-Methyl-imidazo[2,1-b]thiazole-5-carboxylic acid [1-(2-methyl-5-m-tolyl-thiazole-4-carbonyl)-azetidin-2-ylmethyl]-amide] | 1920 | 43
15 | Cc1cccc(-c2oc(C)nc2C(=O)N2CCC2CNC(=O)c2c(C)nc3sccn23)c1 (stereo not drawn) [Example 83, (2RS)-6-Methyl-imidazo[2,1-b]thiazole-5-carboxylic acid [1-5-(2-methyl-5-m-tolyl-oxazole-4-carbonyl)-azetidin-2-ylmethyl]-amide] | 1640 | 406
